Read-outs that look alike come from different tables or passages of the source.
Experiments:
[1] = tested on: Class I ADH; test: Inhibition of Class I ADH; assay type: biochemical, human; details: for Class I ADH activity abolished: 0.2 mM inhibitor
Description: (§1) The linear increase of fluorescence was then recorded for 1-10 minutes, until 0.03-1 μM of substrate was consumed. Larger substrate consumption was not found to be desirable (described in subpart (c) below). After this period the instrument sensitivity setting was reduced 10-30 fold, the signal compensated once again by zero suppression (see part 6 above), and 60 μl of 200-400 μM product (e.g., product IB or IIB) was added to provide an internal standard. The added product fluorescence intensity was then measured Fluorescence measurements were optimized for samples with low activity (<1 nM/minute). For samples with higher activity, repeat measurements were made with the serum volume reduced from 60 μl to 10 μl. Rates measured in the presence of the 0.2 mM ADH inhibitors. 4-MeP or 4-PeP, were made by adding 50 μl of 12 mM inhibitor to the cuvette prior to the assay buffer, and the reaction was carried out as above.
(§2) Aldehyde reduction and 4-MeP inhibition are near optimal at pH 7.6 which was adopted for the study of serum samples.
(§3) The values for these constants were determined with purified Class II ADH or a mixture of purified Class I isozymes, under the fluorometric assay conditions described above in Example 1.

[2] = tested on: β1 β1 ADH (Class I); test: Inhibition of β1β1 (ββ) ADH; assay type: biochemical, human
Description: as §1, §2

[3] = target: T1, β2 β2 ADH (Class I) (Homo sapiens, UniProt P00325); test: Inhibition of β2β2 ADH; assay type: biochemical; details: 0.2 mM 4-MeP
T1 construct: beta2 allele (ADH1B*2)
Description: as §1, §2

[4] = target: T2, ADH activity in human serum (Homo sapiens, UniProt P08319); test: Inhibition of ADH activity in human sera; assay type: biochemical; details: 17 healthy volunteers
T2 construct: from tissue; host or cells: human serum of patients and volunteers
Description: as §1
(§4) The activities of a large group of serum samples were further examined for inhibition by 4-MeP and 4-PeP, both at 0.2 mM, a concentration that abolishes 95-98% of the Class I and Class II ADH activity as shown in Table IV above. […] In contrast, 4-PeP inhibited activity toward IA by greater than […] and IIA by more than 90% in virtually all samples examined (FIG. 8C). The total number of samples examined was 83 for FIG. 8A, 105 for FIG. 8B, and 44 for FIG. 8C.
(§5) Sera whose ADH activity was increased beyond those seen normally were selected based on the modified NDMA assay as described in part 7 of Example 1. In approximately 3% of several hundred random hospital patients tested, elevations in ADH activity were observed using the modified NDMA assay described in part 7 of Example 1. These sera with elevated levels (>2 NDMA mU/ml) were then tested by the fluorometric assay described in part 8 of Example 1 using IA as substrate. Class I ADH activity was detected in nearly all of those classified as having elevated ADH levels by the NDMA criterion. The fluorescent reaction product was analyzed and confirmed to be the alcohol ADH product IB. The observed reaction was inhibited >95% by 3 mM 4-MeP; this confirmed that the activity observed was due primarily to Class I ADH. The rate of reduction of IA was also diminished by the addition of high concentrations (>>Km) of typical ADH substrates, e.g., 0.5 mM benzaldehyde or butyraldehyde, presumably due to competition. […] The optimal dilution for routine measurements was approximately 50-fold.

[5] = tested on: ADH activity in human serum; test: Inhibition of ADH activity in human sera; assay type: biochemical; details: for effect on rate of reduction of IA in sera with elevated ADH: 0.5 mM
Description: as §1, §4, §5

[6] = target: T3, Class II ADH (Homo sapiens, UniProt P08319); test: Inhibition of Class II ADH; assay type: biochemical; design: was used to purify Class II ADH from human livers; from tissue; host or cells: human liver
Description: as §1, §2, §3

[7] = target: T4, Class III ADH (Homo sapiens, UniProt P11766); test: Inhibition of Class III ADH; assay type: biochemical
T4 construct: Adult human livers were obtained at autopsy; from tissue; host or cells: human liver obtained at autopsy
Description: With a high Km value of >0.5 mM, substrate IIA is completely insensitive for Class III ADH. Because Class III ADH has greater hydrophobic selectivity than Classes I and II ADH, naphthaldehydes and quinoline aldehydes which have aliphatic side chains may provide adequate sensitivity for measuring the amount of Class III ADH in serum. In addition because of its greater hydrophobic selectivity, inhibitor compounds such as 4-alkylpyrazoles having aliphatic side chains of 5 carbons (e.g., 4-PeP) or greater may provide, under certain conditions and at certain concentrations, adequate selectivity for measuring Class III ADH in the presence of Classes I and II. […] At 100 μM 4-PeP, the values for inhibition are: Classes I and II, >90%; Class III <10%. Thus, under certain conditions 4-PeP is clearly useful as a selective inhibitor of Class I and II activities, leaving >90% of Class III activity intact and measurable.

[8] = tested on: Class I ADH; test: Inhibition of Class I ADH; assay type: biochemical, human
[9] = Spectral parameters for absorption and fluorescence of ADH substrates and products; assay type: physicochemical; details: for Absorption εmax / Absorption λmax / Fluorescence .phi. (quantum yield) / Fluorescence λmax: Mes buffer (45 mM), pH 7.0
Description: The spectral parameters for 4-methoxy-1-naphthaldehyde (IA), 6-methoxy-2-naphthaldehyde (IIA) and their reduction products (IB and IIB, respectively) are shown in Table I.
Ultraviolet absorption spectra were measured on a Cary 219 or Hewlett-Packard 8451 spectrophotometer. Fluorescence measurements were made in a Perkin Elmer MPF3 spectrofluorometer, equipped with an Osram XBO 150 Watt Xenon lamp, an R446 photomultiplier, and thermostatted cell holder through which water was passed from a Poly-Temp circulator with the following spectrometer settings: excitation wavelength 316 nm. bandwidth 8 nm for both substrate IA and IIA; emission wavelength. 370 nm for substrate IA and 360 nm for substrate IIA, emission bandwidth 24 nm. Changes in fluorescence as a result of oxidation or reduction of the substrate was then measured in the ratio mode. Generally, for fluorometric reactions (see part 8 below). a sensitivity setting of 3 was used with compensation of fluorescence background by the zero suppression control of the instrument.
Aldehyde reduction was monitored by following the decrease of absorption at 340 nm in 40 mM Mes buffer, pH 7.1. in the presence of saturating NADH, 50 μM for Class I and 100 μM for Class II. […] Initial reaction rates were measured and kinetic parameters determined by conventional procedures as described by Segel, 1975, Enzyme Kinetics, pp. 591-597, Wiley, N.Y.

[10] = Stability of substrates and product solutions; assay type: physicochemical; details: 200-400 μM, water with <5% ethanol
Description: The dilute solutions (300 μM) were prepared by diluting 1 ml of the stock solution to 10 ml with water.
Concentrations were determined spectrophotometrically using a molar absorptivity of 5700 M^-1 cm^-1 at 296 nm for IB and 1270 M^-1 cm^-1 at 330 nm for IIB.

[11] = Fluorescence quenching of alcohol products in 50-fold diluted serum; assay type: physicochemical, human; details: 50-fold dilution of serum
Excerpt: Human serum is known to fluoresce over a broad spectral region (Wolfbeis et al., 1985. Anal. Chim. Acta. 167:203-315); the instrumental settings should therefore be chosen to optimize the signal/background noise ratio. […] A 50-fold dilution of serum minimizes interference and maximizes sensitivity. At this dilution, alcohol product IB is only quenched 15% while IIB is quenched 5%. […] The cause of this background fluorescence is unknown

[12] = target: T3, Class II ADH; details: Class II versus other ADH isozymes; cited from earlier work
[13] = 0.2 mM inhibitor, read-out: Class II ADH activity abolished
[14] = 1 mM 4-PeP, pH 10, 0.1M glycine buffer

T3 sequence (P08319 2-380 limits assumed): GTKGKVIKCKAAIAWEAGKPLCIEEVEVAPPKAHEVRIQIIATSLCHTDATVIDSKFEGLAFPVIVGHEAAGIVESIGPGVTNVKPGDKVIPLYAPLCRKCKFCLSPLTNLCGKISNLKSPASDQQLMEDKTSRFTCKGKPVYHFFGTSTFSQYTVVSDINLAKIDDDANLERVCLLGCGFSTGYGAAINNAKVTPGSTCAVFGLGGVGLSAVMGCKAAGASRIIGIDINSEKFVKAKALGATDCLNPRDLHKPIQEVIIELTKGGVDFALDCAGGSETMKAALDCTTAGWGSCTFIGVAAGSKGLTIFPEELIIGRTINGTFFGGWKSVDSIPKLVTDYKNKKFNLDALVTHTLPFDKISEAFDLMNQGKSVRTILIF
T4 sequence (P11766 2-374 limits assumed): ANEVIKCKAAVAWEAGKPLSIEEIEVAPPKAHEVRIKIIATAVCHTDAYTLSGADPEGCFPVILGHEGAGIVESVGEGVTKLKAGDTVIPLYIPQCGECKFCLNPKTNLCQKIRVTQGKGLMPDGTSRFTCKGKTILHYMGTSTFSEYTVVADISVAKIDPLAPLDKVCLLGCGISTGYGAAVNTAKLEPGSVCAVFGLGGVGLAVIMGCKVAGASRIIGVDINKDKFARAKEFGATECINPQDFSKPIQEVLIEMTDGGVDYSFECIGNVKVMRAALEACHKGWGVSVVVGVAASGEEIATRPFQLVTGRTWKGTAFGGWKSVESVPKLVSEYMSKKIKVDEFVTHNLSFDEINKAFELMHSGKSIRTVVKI
T1 sequence (P00325 2-375): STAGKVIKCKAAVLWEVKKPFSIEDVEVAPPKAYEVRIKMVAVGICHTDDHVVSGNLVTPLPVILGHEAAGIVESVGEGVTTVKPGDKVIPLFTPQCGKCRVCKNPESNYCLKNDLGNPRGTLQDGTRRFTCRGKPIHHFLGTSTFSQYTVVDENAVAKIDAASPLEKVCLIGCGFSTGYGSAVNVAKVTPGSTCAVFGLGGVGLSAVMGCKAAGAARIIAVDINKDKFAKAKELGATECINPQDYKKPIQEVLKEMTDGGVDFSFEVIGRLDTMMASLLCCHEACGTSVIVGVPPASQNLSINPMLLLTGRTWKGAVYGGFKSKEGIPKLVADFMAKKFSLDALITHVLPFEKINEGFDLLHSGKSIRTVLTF
T2 sequence (P08319 whole entry): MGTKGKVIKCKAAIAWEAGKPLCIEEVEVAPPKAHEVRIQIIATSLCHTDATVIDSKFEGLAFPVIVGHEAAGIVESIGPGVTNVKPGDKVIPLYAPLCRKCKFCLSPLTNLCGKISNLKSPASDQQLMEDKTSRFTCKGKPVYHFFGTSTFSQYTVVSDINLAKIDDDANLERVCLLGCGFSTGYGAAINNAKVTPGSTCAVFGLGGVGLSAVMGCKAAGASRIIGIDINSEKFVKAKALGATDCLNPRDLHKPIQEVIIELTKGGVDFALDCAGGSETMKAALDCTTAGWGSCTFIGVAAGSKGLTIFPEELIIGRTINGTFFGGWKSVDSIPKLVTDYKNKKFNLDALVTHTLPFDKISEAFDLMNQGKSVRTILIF

With `Cc1cn[nH]c1` [4-MeP, 4-Methylpyrazole] the “inhibition of all Class I isozymes” value ([1]; 0.2 mM 4-MeP, 15 μM IA or IIA, pH 7.6) was “more than 90%”, the “4-MeP Inhibition” value ([1]; 0.2 mM 4-MeP, substrate IA) was 98% and the “b: Class I activity fraction retained” value ([1]; 0.2 mM 4-MeP, substrate IA) was 0.025. The “4-MeP Inhibition” value ([1]; 0.2 mM 4-MeP, substrate IIA, average for Class I except ββ) was 92%, the “Class I ADH activity abolished” value [1] was 95-98% and the “enhancement of assay specificity for Class I and II isozymes with the two substrates” value ([1]; 4-MeP, Class I relative to Class II) was “about 100 fold”. For the same compound, the “4-MeP Inhibition” value ([2]; 0.2 mM 4-MeP, substrate IA) was ~ 95%, the “4-MeP Inhibition” value ([2]; 0.2 mM 4-MeP, substrate IIA) was 98% and the “e: fraction of ββ-ADH activity uninhibited” value ([2]; 0.2 mM 4-MeP, substrate IIA) was 0.025. The “inhibition of Class I ββ isozymes” value ([2]; words) was “inhibited readily”, the “4-MeP Inhibition” value ([3]; substrate IA, nm = not measurable) was “nm” and the inhibition at 200 µM ([3]; substrate IIA) was 97%. For the same compound, the “effect on activity towards IIA in normal sera” value ([4]; 4-MeP) was “insensitive”, the “activity toward IIA remaining in sera” value ([5]; 0.2 mM 4-MeP, 105 samples) was ≥ 70% and the “inhibition of IA activity in sera” value ([5]; 0.2 mM 4-MeP, majority of samples (83)) was “more than 90%”. For the same compound, the “inhibition of IA reaction in sera with elevated ADH” value ([5]; 3 mM 4-MeP) was > 95%, the inhibition at 200 µM ([6]; 0.2 mM 4-MeP, 15 μM IA or IIA, pH 7.6, read-out: inhibition of Class II ADH) was 11% and the inhibition at 200 µM ([6]; 0.2 mM 4-MeP, substrate IA, read-out: 4-MeP Inhibition) was 11%. For the same compound, the inhibition at 200 µM ([6]; 0.2 mM 4-MeP, substrate IIA, as fraction, read-out: c: degree of inhibition of Class II ADH) was 11% and the inhibition at 200 µM [6, 13] was 95 to 98%.

For `CCCCCc1cn[nH]c1` [4-PeP, 4-Pentylpyrazole], the “Class I ADH activity abolished” value [1] was 95-98%, the “inhibition of Class I activity” value ([1]; 4-PeP, substrate IA) was “greater than 99%” and the inhibition at 100 µM ([7]; 100 μM 4-PeP) was < 10%. For the same compound, the inhibition at 1000 µM [7, 14] was 60%, the activity at 100 µM ([7]; 4-PeP, under certain conditions, read-out: Class III activity left intact and measurable) was > 90% and the “effect on activity towards IIA in normal sera” value ([4]; 0.2 mM 4-PeP) was “abolished”. The “inhibition of IIA activity in sera” value ([5]; 0.2 mM 4-PeP, virtually all samples (44)) was “more than 90%”, the inhibition ([8]; 100 μM 4-PeP) was > 90% and the inhibition of activity [8, 14] was > 99.99%. For the same compound, the inhibition at 100 µM ([6]; 100 μM 4-PeP) was > 90%, the inhibition at 200 µM [6, 13] was 95 to 98% and the inhibition at 1000 µM [6, 14] was > 100%. The “inhibition of Class II activity” value ([6]; 4-PeP, substrate IIA) was “more than 90%”.

With `COc1ccc(CO)c2ccccc12` [IB, 4-methoxy-1-naphthalenemethanol] the “Absorption εmax” value [9] was 5,400 M^-1 cm^-1, the “Absorption λmax” value [9] was 297 nm and the “Fluorescence .phi. (quantum yield)” value [9] was 0.36. For the same compound, the “Fluorescence λmax” value [9] was 370 nm, the molar absorptivity ([9]; at 296 nm) was 5700 M⁻¹ cm⁻¹ and the “stability of product solutions” value [10] was “stable for up to a week”. It also gave a fluorescence quenching [11] of 15%.

With `COc1ccc2cc(CO)ccc2c1` [IIB, 6-methoxy-2-naphthalenemethanol] the “Absorption εmax” value [9] was 1,250 M^-1 cm^-1, the “Absorption λmax” value [9] was 329 nm and the “Fluorescence .phi. (quantum yield)” value [9] was 0.26. For the same compound, the “Fluorescence λmax” value [9] was 355 nm, the molar absorptivity ([9]; at 330 nm) was 1270 M⁻¹ cm⁻¹ and the “stability of product solutions” value [10] was “stable for up to a week”. The fluorescence quenching [11] was 5%.

In the case of `O=Cc1ccccc1` [benzaldehyde], the “effect on rate of reduction of IA in sera with elevated ADH” value [5] is reported as “diminished”.

In the case of `CCCC=O` [butyraldehyde], the “effect on rate of reduction of IA in sera with elevated ADH” value [5] is reported as “diminished”.

In the case of `CCO` [ethanol], the “Km for ethanol of Class II relative to other ADH isozymes” value [12] is listed as ≤ 100 times.

— US5162203A, “Methods of measuring isozymes and isozyme classes of alcohol dehydrogenase” (President and Fellows of Harvard College, priority 1989, dated 1992)
